Experiments:
Type in all cases: in vivo
Polygonum convolvulus [1] = assay: Pre-emergence herbicidal activity against POLCO; conditions: dosage 80 g/ha; for pest or weed control at 80 g/ha: Fallopia convolvulus, 504 h
From the text: (§1) 1. Pre-Emergence Herbicidal Action and Crop Plant Compatibility Seeds of monocotyledonous and dicotyledonous weed plants and crop plants are placed in plastic or wood fiber pots and covered with soil. The compounds of the invention, formulated in the form of wettable powders (WP) or as emulsion concentrates (EC), are then applied onto the surface of the covering soil as aqueous suspension or emulsion with addition of 0.5% additive at a water application rate of 600 l/ha (converted). After the treatment, the pots are placed in a greenhouse and kept under good growth conditions for the trial plants. After about 3 weeks, the effect of the preparations is scored visually in comparison with untreated controls as percentages. For example, 100% activity=the plants have died, 0% activity=like control plants. POLCO: Polygonum convolvulus SETVI: Setaria viridis

Veronica persica [2] = assay: Pre-emergence herbicidal activity against VERPE; conditions: dosage 80 g/ha; for pest or weed control at 80 g/ha: Veronica persica, 504 h
From the text: as §1, with “STEME: Stellaria media VERPE: Veronica persica” for “POLCO: Polygonum convolvulus SETVI: Setaria viridis”

Veronica persica [3] = assay: Post-emergence herbicidal activity against VERPE; conditions: dosage 320 g/ha; for pest or weed control at 320 g/ha: Veronica persica, 504 h
In short: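 Greenhouse plants treated at one-leaf stage, 2–3 weeks after sowing, by spraying WP or EC formulations with 0.5% additive at 600 l/ha water. Visual rating about 3 weeks later versus untreated controls (100% = plants dead, 0% = like controls).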

Alopecurus myosuroides = assay: Post-emergence herbicidal activity against ALOMY; conditions: dosage 320 g/ha, rated about 3 weeks after treatment; for pest or weed control at 320 g/ha: Alopecurus myosuroides, 504 h
In short: (§2)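 Greenhouse-grown plants treated at one-leaf stage, 2 to 3 weeks after sowing, with WP or EC formulations sprayed as aqueous suspension/emulsion plus 0.5% additive at 600 l/ha. Activity rated visually about 3 weeks later versus untreated controls (100% = plants dead, 0% = like control).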

Avena fatua [4] = assay: Post-emergence herbicidal activity against AVEFA; conditions: dosage 320 g/ha, rated about 3 weeks after treatment; for pest or weed control at 320 g/ha: Avena fatua, 504 h
In short: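 Greenhouse pots of sandy loam; plants sprayed at one-leaf stage, 2 to 3 weeks after sowing, with WP or EC formulations in water plus 0.5% additive at 600 l/ha. Activity rated visually after about 3 weeks against untreated controls (100% = plants dead, 0% = like control).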

Setaria viridis = assay: Pre-emergence herbicidal activity against SETVI; conditions: dosage 80 g/ha; for pest or weed control at 80 g/ha: Setaria viridis, 504 h
From the text: as §1

Polygonum convolvulus [5] = assay: Post-emergence herbicidal activity against POLCO; conditions: dosage 320 g/ha, rated about 3 weeks after treatment; for pest or weed control at 320 g/ha: Fallopia convolvulus, 504 h
In short: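 Greenhouse weeds in sandy loam were sprayed at the one-leaf stage, 2–3 weeks after sowing, with WP or EC formulations plus 0.5% additive at 600 l/ha water. About 3 weeks later, damage was rated visually against untreated controls, where 100% means plants dead and 0% means like control.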

Avena fatua [6] = assay: Pre-emergence herbicidal activity against AVEFA; conditions: dosage 80 g/ha; for pest or weed control at 80 g/ha: Avena fatua, 504 h, read-out: Pre-emergence herbicidal activity against AVEVA in % (AVEFA)
From the text: as §1, with “AMARE: Amaranthus retroflexus AVEFA: Avena fatua” for “POLCO: Polygonum convolvulus SETVI: Setaria viridis”

Abutilon theophrasti = assay: Post-emergence herbicidal activity against ABUTH; conditions: Abutilon theophrasti, 504 h, dosage 320 g/ha, rated about 3 weeks after treatment
In short: as §2

| Compound | pest or weed control at 80 g/ha (Polygonum convolvulus [1]) [%] | pest or weed control at 80 g/ha (Veronica persica [2]) [%] | pest or weed control at 320 g/ha (Veronica persica [3]) [%] | pest or weed control at 320 g/ha (Alopecurus myosuroides) [%] | pest or weed control at 320 g/ha (Avena fatua [4]) [%] | pest or weed control at 80 g/ha (Setaria viridis) [%] | pest or weed control at 320 g/ha (Polygonum convolvulus [5]) [%] | pest or weed control at 80 g/ha (Avena fatua [6]) [%] | pest or weed control at 320 g/ha (Abutilon theophrasti) [%] | Pre-emergence herbicidal activity against AVEVA in % (AVEFA) (Avena fatua [6]) [%] | Pre-emergence herbicidal activity against POLCO in % (Polygonum convolvulus [1]) [%] | Pre-emergence herbicidal activity against VERPE in % (Veronica persica [2]) [%] | Post-emergence herbicidal activity against VERPE in % (Veronica persica [3]) [%] | Post-emergence herbicidal activity against ALOMY in % (Alopecurus myosuroides) [%] | Post-emergence herbicidal activity against AVEFA in % (Avena fatua [4]) [%] | Pre-emergence herbicidal activity against SETVI in % (Setaria viridis) [%] | Post-emergence herbicidal activity against POLCO in % (Polygonum convolvulus [5]) [%] |
| --- | --- | --- | --- | --- | --- | --- | --- | --- | --- | --- | --- | --- | --- | --- | --- | --- | --- |
| CC(C)(C)OC(=O)[C@H]1C[C@@H](NC(=O)C2(C)CC(c3cccc(F)c3)=NO2)CO1 (mixture of isomers) [I-33, tert-butyl cis-4-[[(5RS)-3-(3-fluorophenyl)-5-methyl-4H-isoxazole-5-carbonyl]amino]tetrahydrofuran-2-carboxylate] | 90 | 100 | 80 | 100 | 100 | 100 | 80 |  |  |  |  |  |  |  |  |  |  |
| CC1(C(=O)N[C@H]2CO[C@@H](C(=O)OCc3ccccc3)C2)CC(c2cccc(F)c2)=NO1 (mixture of isomers) [I-34, benzyl cis-4-[[(5RS)-3-(3-fluorophenyl)-5-methyl-4H-isoxazole-5-carbonyl]amino]tetrahydrofuran-2-carboxylate] | 90 |  | 80 | 100 | 100 | 90 |  | 80 | 80 |  |  |  |  |  |  |  |  |
| COC(=O)[C@H]1C[C@@H](NC(=O)C2(OC)CC(c3cc(F)cc(F)c3)=NO2)CO1 (relative stereo) [I-05, methyl cis-4-[[3-(3,5-difluorophenyl)-5-methoxy-4H-isoxazole-5-carbonyl]amino]tetrahydrofuran-2-carboxylate] | 80 |  | 80 | 90 | 100 | 90 | 90 |  |  |  |  |  |  |  |  |  |  |
| C=CC1(C(=O)N[C@H]2CO[C@@H](C(=O)O)C2)CC(c2cc(F)cc(F)c2)=NO1 (relative stereo) [I-21, cis-4-[[3-(3,5-difluorophenyl)-5-vinyl-4H-isoxazole-5-carbonyl]amino]tetrahydrofuran-2-carboxylic acid] | 90 | 100 | 100 | 90 | 90 | 90 |  | 90 |  |  |  |  |  |  |  |  |  |
| C=C[C@]1(C(=O)NC2COCC2C(=O)OC)CC(c2cc(F)cc(F)c2)=NO1 (stereo partly drawn) [I-26, methyl 4-[[(5S)-3-(3,5-difluorophenyl)-5-vinyl-4H-isoxazole-5-carbonyl]amino]tetrahydrofuran-3-carboxylate] |  | 100 | 90 | 90 | 90 | 100 |  | 90 |  |  |  |  |  |  |  |  |  |
| COC(=O)C1COCC1NC(=O)C1(OC)CC(c2cc(Cl)cc(Cl)c2)=NO1 (stereo not shown) [I-29, methyl 4-[[3-(3,5-dichlorophenyl)-5-methoxy-4H-isoxazole-5-carbonyl]amino]tetrahydrofuran-3-carboxylate] | 100 | 100 | 90 | 90 | 90 |  | 80 | 80 | 80 |  |  |  |  |  |  |  |  |
| COC(=O)C1CC(NC(=O)C2(C(C)(F)F)CC(c3cc(F)cc(F)c3)=NO2)CO1 (stereo not shown) [I-49] |  |  |  |  |  |  |  |  |  | 100 | 100 | 100 | 80 | 90 | 80 | 100 | 80 |
